The values below come from paper PMC10165889 (European journal of medicinal chemistry, 2023).

What is called IC50 is the concentration at which inhibition is half-maximal. One may read the half-life as the time needed for the level to fall by half in the phase considered. Low readings indicate rapid decline, high ones slow decline. Broadly, the solubility is the concentration that dissolves in the medium under given conditions. Low values mean a poorly soluble substance, high ones a readily soluble substance. As usually defined, the Papp B→A is how fast a substance crosses the layer from the basolateral side. The Papp is the rate of passage across a membrane or cell layer, normalised by area and donor concentration. A high value points to ready permeation.

Converted amounts (≈) assume the structure as drawn. Some results are limits rather than exact numbers.

Series [1] is classed as in vitro ADME. As to conditions: RED assay.
In the next series the target is BRD2 (BD1) (Homo sapiens, UniProt P25440). In words: TR-FRET binding assay, BRD2.
A short description of series [2]: in vitro. Particulars: human, microsomes.
The next series in a line: physchem. Particulars: phosphate buffer, pH 7.4.
A further series has as its target BRD4(BD2) (Homo sapiens, UniProt O60885). Put plainly: TR-FRET binding assay, BRD4. For orientation: TR-FRET usually uses a lanthanide donor and a delayed reading to cut background.
The conditions of series [3]: incubation 0.5h, UV; table.
For another series, the system named is NALM16 leukaemia cells. Put plainly: Cancer cell viability, CellTiter-Glo, NALM16. Particulars: NALM16, 72 h, read-out: NALM16, IC50. The series is classed as cell-based. (In general: In ATP-based viability assays light output follows the ATP content of the culture.)
Series [4] in a line: in vitro. As to conditions: human, plasma.
Series [5] is described as follows: in vitro. Particulars: human; for Papp B→A: Caco-2; for Papp: Caco-2, Caco2 A/B (Papp), A to B.
The test system of series [6] is D283 medulloblastoma cells. In words: Cancer cell viability, CellTiter-Glo, D283. Type of series: cell-based. As to conditions: D283, 72 h, read-out: D283, IC50.
Series [7] concerns MOLM-13 acute leukaemia cells. In words: Cancer cell viability, CellTiter-Glo, MOLM-13. The series is classed as cell-based. As to conditions: Homo sapiens, MOLM-13, 72 h, read-out: MOLM-13, IC50.
A further series has as its target BRD2(BD2) (Homo sapiens, UniProt P25440). In words: TR-FRET binding assay, BRD2.
For series [8] the following is noted: incubation up to 48h.
Another series has as its target BRD4 (BD1) (Homo sapiens, UniProt O60885). Put plainly: TR-FRET binding assay, BRD4.
Series [9] can be described thus: In vivo pharmacokinetic study in female CD1 mice. As to conditions: P.O. 3mg/kg and 10mg/kg.
In series [10] the test system is HDMB03 medulloblastoma cells. In words: cells. Type of series: cell-based. Particulars: Homo sapiens, HD-MB03, 72 h, read-out: HDMB03, IC50.
For the next series, the system named is MYC. Put plainly: MYC protein abundance by immunoblotting in MV4-11. Type of series: cell-based. As to conditions: MV4–11, 6 hours incubation, 100 nM. In general terms: Immunoblotting shows a protein as a band on a membrane.
The test system of a further series is BET isoforms. In words: BROMOscan profiling. Particulars: all BET isoforms (Figure S2).

BRD2 (BD1), sequence (P25440 74-180 limits assumed): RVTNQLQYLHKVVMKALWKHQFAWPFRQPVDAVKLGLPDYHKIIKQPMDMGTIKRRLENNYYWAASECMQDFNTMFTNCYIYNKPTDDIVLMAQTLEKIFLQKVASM
BRD2(BD2), sequence (P25440 344-453 limits assumed): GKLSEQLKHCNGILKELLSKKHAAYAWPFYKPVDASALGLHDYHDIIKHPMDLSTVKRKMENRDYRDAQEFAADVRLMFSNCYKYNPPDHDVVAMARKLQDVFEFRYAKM

On to `Cc1sc2c(c1C)C(c1ccc(Cl)cc1)=N[C@@H](CC(=O)Nc1ccc(O)cc1)c1nnc(C)n1-2` [1c, birabresib, reference compound], for which the “PB (human plasma binding)” value in [1] is 97.3%.
Turning to `Cc1sc2c(c1C)C(c1ccc(Cl)cc1)=N[C@@H](CC(=O)NCc1c[nH]nn1)c1nnc(C)n1-2` [1d], the IC50 at BRD2 (BD1) is 8.6 nM; at BRD4(BD2), 1.3 nM. The compound also gave a half-life in “in vitro [2]” of 36 min. In “physchem”, this compound came in with a solubility at 18 h of 57.4 µM (≈ 27.6 µg/mL).
Regarding `Cc1sc2c(c1C)C(c1ccc(Cl)cc1)=N[C@@H](CC(=O)NCc1cn(C)nn1)c1nnc(C)n1-2` [1e], the half-life in the series “in vitro [2]” was 30 min. The compound also gave a solubility at 18 h in “physchem” of 80.8 µM (≈ 40 µg/mL). For the same compound, in series [3], the PAMPA is 14.0 10^−6cm/s.
Compound `Cc1sc2c(c1C)C(c1ccc(Cl)cc1)=N[C@@H](CC(=O)NCc1cn(C)cn1)c1nnc(C)n1-2` [1f] showed a half-life in “in vitro [2]” of 30 min. The compound also returned a solubility at 18 h in the series “physchem” of 65.7 µM (≈ 32.5 µg/mL). Besides, the PAMPA in series [3] is 0.0 10^−6cm/s.
As for `Cc1sc2c(c1C)C(c1ccc(Cl)cc1)=N[C@@H](CC(=O)NCc1ccccc1)c1nnc(C)n1-2` [1g], the half-life in “in vitro [2]” is 6 min. Besides, the solubility at 18 h in “physchem” turned out to be 34.1 µM (≈ 16.7 µg/mL).
On to `Cc1sc2c(c1C)C(c1ccc(Cl)cc1)=N[C@@H](CC(=O)NCc1ccon1)c1nnc(C)n1-2` [1h], for which, in series [1], the “PB (human plasma binding)” value is listed as 93.5%.
For the compound `Cc1sc2c(c1C)C(c1ccc(Cl)cc1)=N[C@@H](CC(=O)NCc1ncco1)c1nnc(C)n1-2` [1i], in the series with NALM16 leukaemia cells, the IC50 is 0.8 nM.
Regarding `COC(=O)C(Cc1c[nH]cn1)NC(=O)C[C@@H]1N=C(c2ccc(Cl)cc2)c2c(sc(C)c2C)-n2c(C)nnc21` (some centres unmarked) [1j], the half-life in the series “in vitro [2]” is 282 min; in “in vitro [4]”, 1.03 days. For the same compound, the solubility at 18 h in “physchem” came out at 68.4 µM (≈ 37.8 µg/mL). Besides, in series [1], the “PB (human plasma binding)” value is on record as 92.7%. The IC50 on BRD4(BD2) amounted to 6.5 nM. Besides, the PAMPA in [3] is recorded as 0.0 10^−6cm/s.
For `Cc1sc2c(c1C)C(c1ccc(Cl)cc1)=N[C@@H](CC(=O)NCc1ccccn1)c1nnc(C)n1-2` [1k], in the series “in vitro [5]”, the Papp B→A was 56.8 ×10⁻⁶ cm/s and the Papp is 9.84 ×10⁻⁶ cm/s. In the series “in vitro [2]”, this compound gave a half-life of 6 min. This compound also showed a solubility at 18 h in “physchem” of 72.5 µM (≈ 35.6 µg/mL). In “in vitro [4]”, this compound displayed a half-life greater than 4.17 days. The IC50 in the series on NALM16 leukaemia cells stood at 14.8 nM.
Consider `Cc1sc2c(c1C)C(c1ccc(Cl)cc1)=N[C@@H](CC(=O)NCC(=O)O)c1nnc(C)n1-2` [1l], for which the IC50 in series [6] was greater than 8.85 µM. The half-life in “in vitro [2]” is 678 min. The amount in solution in “physchem” (solubility at 18 h) came to 66.4 µM (≈ 30.4 µg/mL). Also, the PAMPA in [3] is recorded as 0.5 10^−6cm/s.
`Cc1sc2c(c1C)C(c1ccc(Cl)cc1)=N[C@@H](CC(=O)NCCO)c1nnc(C)n1-2` [1n] registered a Papp B→A in “in vitro [5]” of 8.33 ×10⁻⁶ cm/s. Besides, in the series “in vitro [5]”, the Papp is 0.7 ×10⁻⁶ cm/s. Further, the results for the half-life in “in vitro [2]” and in the series “in vitro [4]” were 192 min and greater than 4.17 days, respectively. The compound further gave a solubility at 18 h in “physchem” of 76.1 µM (≈ 33.8 µg/mL). In series [7], the IC50 worked out at 8.8 nM.
With `Cc1sc2c(c1C)C(c1ccc(Cl)cc1)=N[C@@H](CC(=O)Nc1nccs1)c1nnc(C)n1-2` [1o], the IC50 worked out at 10.9 nM at BRD2 (BD1), 2.6 nM on BRD2(BD2) and 6.4 nM in the series on NALM16 leukaemia cells. Further, the Papp B→A in the series “in vitro [5]” is 4.11 ×10⁻⁶ cm/s. In the series “in vitro [5]”, the Papp was found to be 1.91 ×10⁻⁶ cm/s. The half-life in “in vitro [2]” was 66 min. The concentration in solution in the series “physchem” (solubility at 18 h) was 12.4 µM (≈ 5.99 µg/mL). The “PB (human plasma binding)” value in series [1] is 98.2%.
With `Cc1sc2c(c1C)C(c1ccc(Cl)cc1)=N[C@@H](CC(=O)Nc1nncs1)c1nnc(C)n1-2` [1q], the IC50 at BRD2 (BD1) was 1.6 nM; at BRD4 (BD1), 6.5 nM; in series [10] it was 6.6 nM; in the series on NALM16 leukaemia cells, 3.6 nM. In [8], the human plasma stability turned out to be 100%. Besides, the “oral bioavailability in words” value in [9] is recorded as “high bioavailability”. Besides, the MYC protein abundance result in the series on MYC is reported as “around 50%”. Further, the “affinity in BROMOscan profiling” value with BET isoforms is listed as “high affinity for all BET isoforms”.
